Data taken from US10174314B2, “MiRNA for treating head and neck cancer” (INTERNA TECHNOLOGIES B.V., priority 2011, dated 2019).
“Also recorded” adds a separate entry of the source.

Assays:
ciOKC cells = test: ATM inhibitor treatment, CellTiter-Blue cell viability; assay type: cell-based, human; details: 72 hours
Method: (§1) Both ciOKC and VU-SCC-120 cells were subjected to a concentration range of 40-0.075 μM ATM inhibitor CP466722 (Axon Medchem, Groningen, The Netherlands). After 72 hours cell viability was assessed with the CellTiter-Blue® cell viability assay.

VU-SCC-120 [1] = test: as above; assay type: cell-based, human
Method: as §1

normal keratinocytes = test: miRNA-3157 mimic transfection, cell viability; assay type: cell-based, human; details: 30 nM, 96 hours
Method: (§2) Cells were plated and transfected with miRIDIAN microRNA mimics miR-181a, miR-181a*, miR-181a-2, miR-323-5p, miR-323-3p, miR-326-5p, miR-345-5p, miR-342-3p, miR-342-5p, miR-371-3p, miR-371-5p and non-targeting Mimic Negative Control#1 (Dharmacon, Thermo Fisher Scientific, Lafayette, Colo.) in 96-well flat bottom plates (Greiner Bio-One B.V., Alphen a/d Rijn, The Netherlands). MicroRNA mimic for miR-3157 was obtained from Ambion. The non-targeting siCONTROL#1, and the siRNA PLK1 SMARTpool (Dharmacon) were used as negative and positive controls, respectively. Cells were transfected with […] mimic/siRNA and cell line dependent amounts of DharmaFECT1 (Dharmacon) (Table 6). Cell viability was determined, 96 hours after transfection, by adding CellTiter-Blue reagent (Promega, Leiden, The Netherlands). After two hours of incubation at 37° C. fluorescence was analyzed at 540 nm excitation and 590 nm emission wavelength using an Infinite F200 microplate reader (Tecan, Giessen, The Netherlands).
Normal oral keratinocytes were isolated and cultured as previously described (van Zeeburg et al., 2010). […]
(§3) The cell proliferation has been assessed 96 hours after the transfection of nucleic acids using Dharmafect and the read-out based on the Alamar Blue (resazurin) fluorescent dye for the assessment of mammalian cell cytotoxicity.

precursor line M3 = test: Synthetic mimic transfection, cell viability; assay type: cell-based, human; details: 30 nM mimic, 96 hours after transfection
Method: as §2, §3

[2] = tested on: melanoma or colorectal cancer cells; details: Poell et al. 2012; cited from earlier work
activated BRAF pathway = details: in melanoma or colorectal cancer cells; reported; cited from earlier work
tumour cell lines = test: Synthetic mimic/siRNA transfection, CellTiter-Blue cell viability, panel of cell lines; assay type: cell-based, human; details: 30 nM mimic, 96 hours after transfection
Method: as §2, §3

UM-SCC-11B = test: miRNA-3157 mimic transfection, cell viability; assay type: cell-based, human; details: 30 nM, 96 hours
Method: as §2, §3

VU-SCC-120 [3] = test: miRNA-3157 mimic transfection, cell viability; assay type: cell-based, human; details: 30 nM, 96 hours
Method: as §2, §3

VU-SCC-059 = test: miRNA-3157 mimic transfection, cell viability; assay type: cell-based, human; details: 30 nM, 96 hours
Method: as §2, §3

ATM expression = test: Knockdown of endogenous ATM expression by shRNA constructs, qRT-PCR in ciOKC; assay type: cell-based, human; details: ciOKC transduced with shRNA; qRT-PCR vs control construct
Method: (§4) Viral supernatants were produced by co-transfection of HEK239T cells using FuGENE® 6 (Roche diagnostics, Woerden, The Netherlands) with the pLKO.1 short-hairpin vector together with the packaging and envelop vectors. Both ciOKC and VU-SCC-120 (HNSCC cell line) were transduced with lentiviruses at two following days for four hours in the presence of 3 μg/ml polybrene (Sigma-Aldrich, Zwijndrecht, The Netherlands). In total 48 hours after transduction, cells were subjected to puromycin selection. For ciOKC this was two days 5 μg/ml and subsequently 5 days of 10 μg/ml puromycin (Sigma-Aldrich). For VU-SCC-120 the selection was performed with 1 μg/ml for seven days.
Total RNA was isolated using the mirVana™ miRNA isolation kit (Ambion, Nieuwerkerk aan den IJssel, The Netherlands) according to the instructions of the manufacturer with as only modification that the columns were eluted by 2×25 μl elution buffer. Expression of hsa-miR-181a, hsa-miR-323, hsa-miR-326, hsa-miR-342, hsa-miR-345 and hsa-miR-371 was analyzed by Taqman® microRNA assays following the instructions of the manufacturer (Applied biosystems, Nieuwerkerk aan den IJssel, The Netherlands). ATM expression was analysed by Taqman® gene expression assay. […] Quantitative RT-PCR reactions without reverse transcriptase were carried out in parallel for each RNA sample to exclude signal by contaminating DNA. […]

VU-SCC-120 [4] = test: Lentiviral shRNA ATM knockdown, cell survival; assay type: cell-based, human; details: VU-SCC-120 vs ciOKC
Description: Lentiviral vectors with short-hairpin RNA sequences targeting ATM were obtained from the TRC short-hairpin library (Sigma-Aldrich, Zwijndrecht, the Netherlands) that is available at VU university medical center. Each shRNA sequence is complementary to an unique part of the ATM mRNA sequence.
as §4
Therefore we introduced five lentiviral shRNA constructs designed to specifically knockdown ATM expression. Each shRNA sequence was complementary to an unique part of the ATM mRNA sequence.

Molecule: COc1cc2ncnc(-n3nc(-c4ccccn4)nc3N)c2cc1OC [CP466722]
- IC50 (ciOKC cells): 8.2 µM
- IC50 (VU-SCC-120 [1]; VU-SCC-120, 72 hours): 2.6 µM
- change of IC50 ciOKC to VU-SCC-120 (VU-SCC-120 [1]; p-value <0.05 by T-testing): 3 fold

Molecule: miRNA-3157: microRNA mimic for miR-3157 from Ambion; mature UUCAGCCAGGCUAGUGCAGUCU (SEQ ID NO: 364) (listed as RNA, chemistry not given here)
- cell viability (normal keratinocytes): not lethal; also recorded: does not inhibit cell viability
- cell viability in precursor line M3 (precursor line M3): not lethal
- lethality to melanoma or colorectal cancer cells [2]: lethal
- inhibition of activated BRAF pathway (activated BRAF pathway): selective inhibitor of activated BRAF pathway
- cell viability in tumour cell lines (tumour cell lines): lethal for three out of four tumor cell lines
- cell viability (UM-SCC-11B): inhibits cell viability
- cell viability (VU-SCC-120 [3]): inhibits cell viability
- cell viability (VU-SCC-059): inhibits cell viability

Molecule: ATM shRNA number 5: lentiviral pLKO.1 short-hairpin construct targeting ATM from the TRC library; probably SEQ ID NO: 359 (CCGGGCCGTCAACTAGAACATGATACTCGAGTATCATGTTCTAGTTGACGGCTTTTTG)
- downregulation of ATM expression levels (ATM expression): no significant downregulation

Molecule: shRNA ATM1: lentiviral pLKO.1 short-hairpin construct targeting ATM from the TRC library; probably SEQ ID NO: 355 (CCGGCCTGCCAACATACTTTAAGTACTCGAGTACTTAAAGTATGTTGGCAGGTTTTTG)
- toxicity in the tumour cell line as compared to the ciOKC cells (therapeutic window) (VU-SCC-120 [4]): at least 8 times

Molecule: mimic 323-5p: miRIDIAN microRNA mimic (Dharmacon); AGGUGGUCCGUGGCGCGUUCGC (SEQ ID NO: 22) (listed as RNA, chemistry not given here)
- cell viability in tumour cell lines (tumour cell lines): cause a decrease in all tumour cell lines
